Source: paper PMC3365106, “Expression of Transient Receptor Potential Ankyrin 1 (TRPA1) and Its Role in Insulin Release from Rat Pancreatic Beta Cells” (PLoS ONE, 2012)

Target: transient receptor potential ankyrin 1 (TRPA1) (Rattus norvegicus, UniProt Q6RI86)
Test: whole-cell patch clamp in primary rat beta cells (MG in pipette); also currents in TRPA1-transfected HEK293T cells and siRNA-sensitive Ca2+ influx
Assay type: cell-based

Chain of transient receptor potential ankyrin 1 (TRPA1) (Q6RI86 whole entry): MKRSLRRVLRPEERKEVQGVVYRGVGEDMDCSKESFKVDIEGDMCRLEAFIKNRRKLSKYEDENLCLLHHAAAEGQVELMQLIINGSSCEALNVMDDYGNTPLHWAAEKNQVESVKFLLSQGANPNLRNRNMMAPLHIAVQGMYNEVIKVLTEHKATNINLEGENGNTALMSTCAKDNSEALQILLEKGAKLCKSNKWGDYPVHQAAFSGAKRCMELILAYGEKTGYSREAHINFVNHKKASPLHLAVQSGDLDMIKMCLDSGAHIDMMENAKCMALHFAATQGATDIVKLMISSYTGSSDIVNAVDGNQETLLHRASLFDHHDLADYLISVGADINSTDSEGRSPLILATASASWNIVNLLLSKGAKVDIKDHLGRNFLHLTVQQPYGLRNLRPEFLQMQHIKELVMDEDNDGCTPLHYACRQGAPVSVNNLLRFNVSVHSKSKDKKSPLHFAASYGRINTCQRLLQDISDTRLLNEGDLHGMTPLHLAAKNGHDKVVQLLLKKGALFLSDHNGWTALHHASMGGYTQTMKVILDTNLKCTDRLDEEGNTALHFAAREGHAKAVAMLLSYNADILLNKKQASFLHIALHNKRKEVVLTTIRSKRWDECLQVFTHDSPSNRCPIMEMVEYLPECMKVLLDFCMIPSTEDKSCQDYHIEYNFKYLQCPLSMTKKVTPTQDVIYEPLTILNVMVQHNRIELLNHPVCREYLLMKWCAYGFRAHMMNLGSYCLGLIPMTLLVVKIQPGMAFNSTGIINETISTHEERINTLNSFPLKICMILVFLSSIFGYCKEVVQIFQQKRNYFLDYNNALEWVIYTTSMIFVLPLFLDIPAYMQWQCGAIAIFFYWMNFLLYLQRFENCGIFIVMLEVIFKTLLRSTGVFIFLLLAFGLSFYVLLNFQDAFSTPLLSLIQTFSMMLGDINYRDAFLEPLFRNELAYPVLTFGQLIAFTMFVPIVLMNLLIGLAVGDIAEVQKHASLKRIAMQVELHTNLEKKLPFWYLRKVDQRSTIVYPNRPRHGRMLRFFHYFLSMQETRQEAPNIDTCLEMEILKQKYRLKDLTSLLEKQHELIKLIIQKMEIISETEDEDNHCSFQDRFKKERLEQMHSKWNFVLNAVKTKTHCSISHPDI

CC(=O)C=O [MG, methylglyoxal] was tested. Which EC50 did it give?
The EC50 was 590 nM.
